Publication PMC7185853 (Fish & Shellfish Immunology, 2015)

Test system: VHSV
Test: Inhibition of in vitro VHSV infection of ZF4 cells
Assay type: cell-based, viral haemorrhagic septicemia virus VHSV- 07.71
Conditions: for VHSV-inhibiting concentrations lower than those of the SERPINe1-derived peptide: ZF4 cells, duplicates (Fig. 3)

Compound | VHSV-inhibiting concentrations lower than those of the SERPINe1-derived peptide [fold] | Inhibition of VHSV infectivity in vitro (68 μg per ml (∼40 μM), ZF4 cells (Fig. 3)) [%]
O=C(O)C(=O)c1cn(Cc2ccccc2)c2ccc(-c3ccc(OC(F)(F)F)cc3)cc12 [tiplaxtinin] | ~50 | –
O=C(O[C@@H]1Cc2c(O)cc(O)cc2O[C@@H]1c1cc(O)c(O)c(O)c1)c1cc(O)c(O)c(O)c1 [EGCG] | ~50 | –
tannic acid | ~50 | ~95
